Test results taken from paper PMC8160911, “Anti-Melanogenic Properties of Velutin and Its Analogs” (Molecules, 2021).
Entries after “also recorded” stand apart in the source; their conditions may differ. Read-outs that look alike come from different tables or passages of the source. One block for each molecule: values may come before it.

Assays:
[1] = test system: B16F10 murine melanoma cells; test: Cell viability / cytotoxicity by MTT assay; format: cell-based; settings: for death rate: 20 μM
Description: (§1) B16F10 murine melanoma cells were cultured in DMEM medium (Gibco, Gaithersburg, USA) supplemented with 10% heat-inactivated fetal bovine serum (Gibco), 100 units/mL penicillin, and 100 μg/mL streptomycin (Gibco), at 37 °C under humidified 5% CO2.
The viability of B16F10 cells was determined using an MTT assay, as previously described. In brief, B16F10 cells were seeded in 24-well plates at a density of 1 × 10^4 cells per well. After 24 h, the cells were treated with the indicated concentrations of velutin derivatives for 48 h. The cells were then incubated with MTT solution for 4 h, and the reduced formazan crystals were dissolved in DMSO. The resulting solution was transferred to 96-well plates, and the absorbance was measured at 540 nm, using a SpectraMax M5 Multi-Mode microplate reader.
Figure 2 Cytotoxicity of velutin derivatives in the B16F10 melanoma cells. B16F10 cells were treated with 0.1% DMSO as vehicle, or with 20 μM of each derivative, for 24 h. Cell viability was determined by the MTT assay, as described in the Experimental Section. Data are expressed as the mean ± SD of three independent experiments (** p < 0.005, *** p < 0.001 compared to the control cells).

[2] = biological target: T1, mushroom tyrosinase (Agaricus bisporus, UniProt C7FF04); test: In vitro mushroom tyrosinase inhibition (dopachrome formation from L-tyrosine); format: biochemical
T1 construct: purchased Sigma-Aldrich
T1 sequence (C7FF04 1-392 limits assumed): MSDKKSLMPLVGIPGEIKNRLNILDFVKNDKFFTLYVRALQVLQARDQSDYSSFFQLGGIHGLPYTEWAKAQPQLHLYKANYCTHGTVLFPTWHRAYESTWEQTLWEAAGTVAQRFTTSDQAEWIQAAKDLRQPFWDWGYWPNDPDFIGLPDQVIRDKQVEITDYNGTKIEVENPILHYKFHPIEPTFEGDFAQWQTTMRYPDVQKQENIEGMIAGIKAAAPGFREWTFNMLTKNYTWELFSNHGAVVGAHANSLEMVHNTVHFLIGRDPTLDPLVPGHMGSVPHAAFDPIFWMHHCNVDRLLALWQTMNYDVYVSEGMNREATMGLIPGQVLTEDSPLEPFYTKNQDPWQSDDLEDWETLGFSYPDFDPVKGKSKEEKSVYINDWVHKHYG
Description: The inhibitory effect of velutin derivatives on tyrosinase activity was assessed by the amount of dopachrome synthesized from the catalytic reaction of tyrosinase. […] Then, 100 μL of 0.4 mM L-tyrosine was added to each well, followed by incubation for an additional 10 min at 37 °C.

[3] = ABTS free radical scavenging activity; settings: for EC50: 10 min in the dark at RT
Description: In order to evaluate the antioxidant activity of the velutin derivatives, the ABTS radical scavenging activity was determined, as previously described. To generate the ABTS radical, 10 mL of 7 mM ABTS was mixed with 176 μL of 140 mM potassium peroxydisulfate in dH2O, and incubated in the dark at room temperature (RT) for 16 h, prior to use. The ABTS radical solution was diluted with absolute methanol, to obtain an absorbance of near 0.7 at 734 nm. Aliquots of 100 μL of each derivative in the indicated concentration range 2 to 200 μM were added to 100 μL of the diluted ABTS radical solution, and incubated for 10 min in the dark at RT. The absorbance was then measured at 732 nm using a SpectraMax M5 Multi-Mode microplate reader (Molecular Devices, Sunnyvale, CA, USA). The ABTS radical scavenging activity was calculated as follows:ABTS radical scavenging activity (%) = 1 − (Asample/Acontrol) × 100(1)

[4] = test system: intracellular tyrosinase in B16F10 cells; test: Cellular tyrosinase activity in α-MSH-stimulated melanoma cells (L-DOPA to dopachrome in lysates); format: cell-based, murine; settings: 48 h; for effect on α-MSH-mediated intracellular tyrosinase activation / reversal of α-MSH-mediated tyrosinase activation: 10 μM, 100 nM α-MSH
Description: as §1
Tyrosinase activity in B16 cells was examined on the basis of the amount of dopachrome produced from the catalytic reaction of intracellular tyrosinase. In brief, the melanoma cells were cultured in a 6-well plate for 24 h, followed by treatment with different concentrations of velutin derivatives for a further 48 h, in the presence of 100 nM of α–MSH. After washing twice with ice-cold D-PBS, the cells were lysed in 200 μL of radio-immunoprecipitation assay (RIPA) buffer (Sigma-Aldrich), containing protease and phosphatase inhibitors. After centrifugation of the cell lysate collected from each well at 15,000× g for 15 min, 100 μL of supernatant was mixed with 100 μL of 1 mM L-DOPA in PBS (pH 6.8), followed by incubation for 30 min at 37 °C. The absorbance of dopachrome was measured at 475 nm using the microplate reader. Data were normalized with protein concentration, determined by bicinchoninic acid assay.
(§2) Figure 3 Effect of velutin derivatives on intracellular melanin synthesis in B16F10 melanoma cells. B16F10 cells were treated with 0.1% DMSO as vehicle, or with 10 μM of each derivative, for 48 h. (A) Melanin content in the B16F10 cells was determined using a photometric method, as described in the Experimental Section. (B) Cellular tyrosinase activity was determined by measuring dopachrome generated by the enzymatic reaction of cell lysates with L-DOPA. Data are expressed as the mean ± SD of three independent experiments (** p < 0.005, *** p < 0.001 as compared to α-MSH-stimulated B16F10 cells).

[5] = test system: B16F10 melanoma cells; test: Melanin content in α-MSH-stimulated melanoma cells; format: cell-based, murine; settings: 48 h; for effect on α-MSH-stimulated melanogenesis: 10 μM; for inhibition at 10 µM: Mus musculus, B16-F10, 10 μM, read-out: inhibition of α-MSH-stimulated melanogenesis
Description: as §1
The melanin content was determined as previously described, with some modifications. The melanoma cells were cultured in a 6-well plate for 24 h. They were treated with the indicated concentrations of velutin derivatives for a further 48 h, in the presence of 100 nM α–MSH. After washing twice with chilled Dulbecco’s phosphate buffered saline supplemented with calcium chloride and magnesium chloride (D-PBS, Gibco), the resulting cells were detached by incubation with trypsin–EDTA solution. After centrifugation at 1000 rpm for 3 min, the cell pellet was dissolved in 150 μL of 1 M NaOH containing 10% DMSO for 1 h at 60 °C. The melanin content was determined by the absorbance at 405 nm, using the microplate reader.
as §2

[6] = 50 U/mL mushroom tyrosinase, L-tyrosine substrate, read-out: IC50 in Mushroom Tyrosinase Activity

Molecule: COc1cc(O)c2c(=O)cc(-c3ccc(O)c(O)c3)oc2c1 [Compound V8, 2-(3,4-Dihydroxyphenyl)-5-hydroxy-7-methoxy-4H-chromen-4-one]
- death rate [1]: 71.8%
- IC50 [2, 6]: 202 µM
- EC50 [3]: 5.47 µM

- EC50 [3]: 21.9 µM
Molecule: COc1ccc2c(=O)cc(-c3ccc(O)c(OC)c3)oc2c1 [Compound V2, 2-(4-Hydroxy-3-methoxyphenyl)-7-methoxy-4H-chromen-4-one]
- effect on α-MSH-mediated intracellular tyrosinase activation [4]: did not
- effect on α-MSH-stimulated melanogenesis ([5]; 100 nM α-MSH): completely inhibited

- EC50 [3]: 96.6 µM
Molecule: COc1cccc(-c2cc(=O)c3c(O)cc(OC)cc3o2)c1 [Compound V5, 5-Hydroxy-7-methoxy-2-(3-methoxyphenyl)-4H-chromen-4-one]
- reversal of α-MSH-mediated tyrosinase activation [4]: 80%
- inhibition at 10 µM ([5]; 100 nM α-MSH): 39.3%

- IC50 [2, 6]: 910 µM
- EC50 [3]: 23.1 µM
Molecule: COc1cc(O)c2c(=O)cc(-c3ccc(O)c(OC)c3)oc2c1 [Compound V1, Velutin]
- reversal of α-MSH-mediated tyrosinase activation [4]: 87%
- effect on α-MSH-stimulated melanogenesis ([5]; 100 nM α-MSH): completely inhibited

- EC50 [3]: 12.7 µM
Molecule: OC[C@H]1O[C@@H](Oc2ccc(O)cc2)[C@H](O)[C@@H](O)[C@@H]1O [Arbutin, arbutin, reference compound]

Molecule: COc1cc(O)c2c(=O)cc(-c3ccc(O)cc3)oc2c1 [Compound V4, Genkwanin]
- IC50 [2]: 204 µM
- EC50 [3]: 55.7 µM
- reversal of α-MSH-mediated tyrosinase activation [4]: 100%
- inhibition at 10 µM ([5]; 100 nM α-MSH): 69.1%

Molecule: O=c1cc(-c2ccccc2)oc2ccccc12 [Compound V12, 2-Phenylchromen-4-one]
- effect on radical scavenging activity [3]: no significant effect

Molecule: O=c1cc(-c2ccc(O)c(O)c2)oc2cc(O)cc(O)c12 [Compound V11, luteolin]
- death rate [1]: 69.7%
- effect on cell viability / cytotoxicity ([1]; concentrations up to 20 μM): cytotoxicity
- IC50 [2, 6]: 36.7 µM
- EC50 [3]: 6.13 µM

- EC50 [3]: 23.3 µM
Molecule: COc1cc(-c2cc(=O)c3c(O)cccc3o2)ccc1O [Compound V3, 5-Hydroxy-2-(4-hydroxy-3-methoxyphenyl)-4H-chromen-4-one]
- reversal of α-MSH-mediated tyrosinase activation [4]: 97%
- inhibition at 10 µM ([5]; 100 nM α-MSH): 50.7%

Molecule: COc1cc(OC)c2c(=O)cc(-c3ccc(OC)c(OC)c3)oc2c1 [Compound V10, 2-(3,4-Dimethoxyphenyl)-5,7-dimethoxy-4H-chromen-4-one]
- death rate [1]: 24.0%
- effect on radical scavenging activity [3]: no significant effect
- effect on α-MSH-mediated intracellular tyrosinase activation [4]: did not
- effect on α-MSH-stimulated melanogenesis ([5]; 100 nM α-MSH): not significantly changed

- EC50 [3]: 22.1 µM
Molecule: COc1cc(-c2cc(=O)c3c(O)cc(O)cc3o2)ccc1O [Compound V7, Chrysoeriol]
- effect on α-MSH-mediated intracellular tyrosinase activation [4]: did not; also recorded: no effect
- effect on α-MSH-stimulated melanogenesis ([5]; 100 nM α-MSH): not significantly changed; also recorded: no effect

Molecule: α-melanocyte stimulating hormone [α–MSH, reference compound]
- activation of tyrosinase by α-MSH ([4]; 100 nM α-MSH alone): approximately 1.7 fold
- increase of melanin content by α-MSH ([5]; 100 nM α-MSH alone): 1.9 fold

- EC50 [3]: 23.7 µM
Molecule: COc1cc(OC)c2c(=O)cc(-c3ccc(O)c(OC)c3)oc2c1 [Compound V6, 2-(4-Hydroxy-3-methoxyphenyl)-5,7-dimethoxy-4H-chromen-4-one]
- increase of melanin synthesis ([5]; 10 μM derivative, 100 nM α-MSH): 3.0 fold

Molecule: COc1cc(O)c2c(=O)cc(-c3ccc(OC)c(OC)c3)oc2c1 [Compound V9, 2-(3,4-Dimethoxyphenyl)-5-hydroxy-7-methoxy-4H-chromen-4-one]
- IC50 [2, 6]: 715 µM
- EC50 [3]: 100 µM
- effect on α-MSH-mediated intracellular tyrosinase activation [4]: did not
- effect on α-MSH-stimulated melanogenesis ([5]; 100 nM α-MSH): not significantly changed
